One block for each compound: values may come before it.
Tests used:
[1] = Stability test: HPLC relative purity of peptide dissolved in buffer, by pH and temperature; format: physicochemical
Description: For Example 1 and Comparative Example 1, stability tests according to pH for each temperature were performed.
Stability tests for each peptide were performed by liquid chromatography purity analysis for each temperature and each pH according to analysis timing (initial, 24 hours, 130 hours). […] Samples were analyzed by injecting 20 ul of each sample with an auto-sample injector, and the analysis column was Inspire C18 (4.6×250 mm, […], 12 nm) manufactured by Dikma. The analysis temperature was 40° C., and a UV wavelength of 215 nm was used.
On the basis of the HPLC analysis results, relative purity was calculated for Comparative Example 1 and Example 1 for each storage condition. The relative purity is the percentage of measured purity changing according to the storage period, with the initial purity being set to 100% for each sample. FIGS. 1 and 2 are graphs showing the results of stability tests for Example and Comparative Example stored at a temperature of 25° C., in which FIG. 1 is a graph of a test result for 24 hours of storage, and FIG. 2 is a graph of a test result for 130 hours of storage. FIGS. 3 and 4 are graphs showing the results of stability tests for Example and Comparative Example stored at 40° C., in which FIG. 3 is a graph of a test result for 24 hours of storage, and FIG. 4 is a graph of a test result for 130 hours of storage. In each graph, the x-axis represents the test group by pH and the y-axis represents the relative purity […].

MDA-MB-231 [2] = experiment: MDA-MB-231 xenograft in BalB/c nude mouse: survival rate; format: in vivo; conditions: paclitaxel only
Description: To investigate survival rates of the paclitaxel-only administration group and the group co-administered with paclitaxel and the peptide of Example 1, experiments described below were performed. 5×10^6 cells/head of the human triple negative breast cancer cell line MDA-MB-231 were mixed with Matrigel and PBS (1:1). 100 ul of the mixture was injected into the right third fat pad of 7-week-old female BalB/c nude mouse. After the transplantation, drug administration started from an average tumor size of 70 mm^3. Paclitaxel 20 mg/kg was administered once weekly, and the peptide 100 mg/kg of Example 1 was administered subcutaneously 3 times weekly at 48-hour intervals, 48 hours after the paclitaxel administration. Each test group was administered for 12 weeks and animal survival was observed daily. FIG. 10 is a graph illustrating survival rates over time after sample administration in animal experimentation. In FIG. 10, the x-axis represents the elapsed time (days) after administration and the y-axis represents survival rates (%). […] In the case of the group co-administered with the peptide of Example 1, the first deceased mouse occurred on Day 60 of administration.

MDA-MB-231 [3] = experiment: MDA-MB-231 fat pad xenograft in athymic nude mouse: tumor volume and weight; format: in vivo, human; conditions: paclitaxel only
Description: 5×10^6 cells/head of the human triple negative breast cancer cell line MDA-MB-231 (American Type Culture Collection (ATCC)) were mixed with Matrigel and PBS (1:1). 100 ul of the mixture was injected into the right third fat pad of 7-week-old female athymic nude mouse. After the transplantation, drug administration started from an average tumor size of 80 mm^3. Paclitaxel 20 mg/kg was administered on Day 0 and on Day 1. That is, the paclitaxel 20 mg/kg was administered a total of two times. Then, the peptide of Example 1 was administered in a dose of 100 mg/kg on Day 2, Day 4, and Day 6. That is, the peptide of Example 1 was administered a total of three times. Tumor volumes were measured 3 times a week for 3 weeks after administration of the first dose. Tumor weights were measured by necropsy after the end of the experiment. For each group, ten mice were used.
Tumor volume changes over time for each group are shown in FIG. 8, and tumor weight on the eighteenth day after the administration of the first dose for each group is shown in FIG. 9. FIG. 8 is a graph illustrating the changes in tumor volume over time after sample administration in animal experimentation. In FIG. 8, the x-axis represents the number of days elapsed after the start of administration and the y-axis represents the tumor volume change (mm^3). FIG. 9 is a graph illustrating a tumor weight for each test group in animal experimentation. In FIG. 9, the x-axis represents test groups and the y-axis represents tumor weights (mg).

4T1 cells = experiment: Syngeneic model implanted with paclitaxel-resistant 4T1 cells: tumor volume, Western blot of cleaved PARP and LC3II; format: in vivo, mouse; conditions: paclitaxel only
Description: Cell death and autophagy marker changes were determined by the Western blot method, using a syngeneic model implanted with 4T1 cells (American Type Culture Collection (ATCC)), which are mouse triple negative breast cancer tumor cells resistant to paclitaxel. The drug administration was started, when the tumor volume was reached to 70 mm^3 after a fat pad of Balb/c mice (6 weeks old, female) was transplanted with 4T1 cells in a concentration of 1×10^6 cells/head. For Week 1, paclitaxel 20 mg/kg was administered on Day 1 and Day 2, and the peptide (10, 100 mg/kg) of Example 1 was co-administered on Day 3, Day 5, and Day 7. In addition, the same process was performed for each of Week 2, and Week 3 (n=3). The tumor volumes were measured daily because the tumors grew very quickly. The changes in cleaved PARP, which is a cell death marker, and the changes in LC3II, which is an autophagy marker, in tumors were analyzed after necropsy on the day after the end of the 3-week administration, by a Western blot test.
FIG. 5 is a graph illustrating the results of tumor volume measurements according to the number of days after treatment in animal experimentation. In FIG. 5, the x-axis represents the number of days elapsed after treatment and the y-axis represents the tumor volume change (mm^3).
In addition, the changes in cleaved PARP, which is a cell death marker, are shown in FIG. 6, and the changes in LC3II, which is an autophagy marker, are shown in FIG. 7. FIG. 6 is a graph showing the changes in expression of cleaved PARP, which is a cell death marker, for each treatment group in animal experimentation, and FIG. 7 is a graph showing the changes in expression of LC3II, which is an autophagy marker, for each treatment group in animal experimentation.

[4] = eighteenth day after first dose

Relative purity ([1]; pH 2, 25 ± 2° C., RH 60 ± 5%, storage 0 hours (initial set to 100%)): 100.0% | Relative purity ([1]; pH 2, 25 ± 2° C., RH 60 ± 5%, storage 24 hours): 79.0% | Relative purity ([1]; pH 2, 25 ± 2° C., RH 60 ± 5%, storage 130 hours): 25.0% | Relative purity ([1]; pH 2, 40 ± 2° C., RH 75 ± 5%, storage 0 hours (initial set to 100%)): 100.0% | Relative purity ([1]; pH 2, 40 ± 2° C., RH 75 ± 5%, storage 24 hours): 27.6% | Relative purity ([1]; pH 2, 40 ± 2° C., RH 75 ± 5%, storage 130 hours): 0.3% | Relative purity ([1]; pH 5, 25 ± 2° C., RH 60 ± 5%, storage 0 hours (initial set to 100%)): 100.0% | Relative purity ([1]; pH 5, 25 ± 2° C., RH 60 ± 5%, storage 24 hours): 77.9% | Relative purity ([1]; pH 5, 25 ± 2° C., RH 60 ± 5%, storage 130 hours): 21.7% | Relative purity ([1]; pH 5, 40 ± 2° C., RH 75 ± 5%, storage 0 hours (initial set to 100%)): 100.0% | Relative purity ([1]; pH 5, 40 ± 2° C., RH 75 ± 5%, storage 24 hours): 21.8% | Relative purity ([1]; pH 5, 40 ± 2° C., RH 75 ± 5%, storage 130 hours): 0.1% | Relative purity ([1]; pH 7, 25 ± 2° C., RH 60 ± 5%, storage 0 hours (initial set to 100%)): 100.0% | Relative purity ([1]; pH 7, 25 ± 2° C., RH 60 ± 5%, storage 24 hours): 28.5% | Relative purity ([1]; pH 7, 25 ± 2° C., RH 60 ± 5%, storage 130 hours): 0.1% | Relative purity ([1]; pH 7, 40 ± 2° C., RH 75 ± 5%, storage 0 hours (initial set to 100%)): 100.0% | Relative purity ([1]; pH 7, 40 ± 2° C., RH 75 ± 5%, storage 24 hours): 0.2% | Relative purity ([1]; pH 7, 40 ± 2° C., RH 75 ± 5%, storage 130 hours): 0.0% | Relative purity ([1]; pH 9, 25 ± 2° C., RH 60 ± 5%, storage 0 hours (initial set to 100%)): 100.0% | Relative purity ([1]; pH 9, 25 ± 2° C., RH 60 ± 5%, storage 24 hours): 50.2% | Relative purity ([1]; pH 9, 25 ± 2° C., RH 60 ± 5%, storage 130 hours): 2.4% | Relative purity ([1]; pH 9, 40 ± 2° C., RH 75 ± 5%, storage 0 hours (initial set to 100%)): 100.0% | Relative purity ([1]; pH 9, 40 ± 2° C., RH 75 ± 5%, storage 24 hours): 8.5% | Relative purity ([1]; pH 9, 40 ± 2° C., RH 75 ± 5%, storage 130 hours): 0.0%
Compound: QLHLD [Comparative Example 1, reference compound]
Stability (summary in words) ([1]; liquid state, pH 2-9, 25 and 40° C., up to 130 hours): in some cases, the samples were not stable

Compound: CC(=O)O[C@H]1C(=O)[C@@]2(C)[C@H]([C@H](OC(=O)c3ccccc3)[C@]3(O)C[C@H](OC(=O)[C@H](O)[C@@H](NC(=O)c4ccccc4)c4ccccc4)C(C)=C1C3(C)C)[C@]1(OC(C)=O)CO[C@@H]1C[C@@H]2O [paclitaxel, reference compound]
Day of administration on which the first deceased mouse occurred (MDA-MB-231 [2]; 20 mg/kg once weekly): 21 days | Survival rate after the end of the experiment (MDA-MB-231 [2]; 12 weeks): 30% | CR (mice in which the tumor disappeared) (MDA-MB-231 [3]; 20 mg/kg Day 0 and Day 1, ten mice): 10% | Reduction in tumor volume compared to control group (MDA-MB-231 [3]; [4]): 33% | Reduction in tumor weight compared to control group (MDA-MB-231 [3]; [4]): 34.5% | Day on which the tumor disappeared (MDA-MB-231 [3]; one mouse): 16 days | Reduction in tumor volume compared to the control group (4T1 cells; 20 mg/kg, Balb/c mice): insignificant reduction in tumor volume | Increase in LC3II expression level in tumor compared to control group (4T1 cells; Western blot after 3-week administration): 2.4 fold

Source: patent US20250059232A1, “PENTAPEPTIDE AND USE THEREOF” (ENSOL BIOSCIENCES INC., priority 2021, published 2025)
